Experimental data reported in patent US11071300B2, “Pesticidally active pyrazole derivatives” (SYNGENTA PARTICIPATIONS AG, priority 2017, dated 2021).
Where two headings read alike, the source gives them in different places.

What was measured:
Format in all cases: in vivo
[1] = test system: Thrips tabaci; test: Thrips tabaci (onion thrips) leaf disc test; settings: foliar, 144 h, read-out: control (mortality)
Experimental: Thrips tabaci (Onion Thrips):
Sunflower leaf discs were placed on agar in 24-well microtiter plates and sprayed with aqueous test solutions prepared from 10′000 ppm DMSO stock solutions. After drying the leaf discs were infested with a thrips population of mixed ages. The samples were assessed for mortality 6 days after infestation.

[2] = test system: Spodoptera littoralis; test: Spodoptera littoralis (Egyptian cotton leaf worm) leaf disc test; settings: foliar, 72 h, application rate 200 ppm, cotton leaf discs sprayed, L1 larvae, 3 days after infestation, read-out: control (at least one of mortality, anti-feedant effect, growth inhibition)
In short: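 Cotton leaf discs on agar were sprayed with aqueous dilutions of 10′000 ppm DMSO stocks, dried and infested with five L1 larvae. Mortality, anti-feedant effect and growth inhibition were scored against untreated samples 3 days after infestation. Control = any of these higher than untreated.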

[3] = test system: Diabrotica Balteata; test: Diabrotica balteata (corn root worm) maize sprout test; settings: 96 h, read-out: control (mortality and growth inhibition)
Experimental: Diabrotica Balteata, (Corn Root Worm)
Maize sprouts, placed on an agar layer in 24-well microtiter plates were treated with aqueous test solutions prepared from 10′000 ppm DMSO stock solutions by spraying. After drying, the plates were infested with L2 larvae (6 to 10 per well). The samples were assessed for mortality and growth inhibition in comparison to untreated samples 4 days after infestation.

[4] = test system: Plutella xylostella; test: Plutella xylostella (diamond back moth) artificial diet test; settings: 120 h, read-out: control (mortality and growth inhibition)
Experimental: Plutella xylostella (Diamond Back Moth):
24-well microtiter plates with artificial diet were treated with aqueous test solutions prepared from 10′000 ppm DMSO stock solutions by pipetting. After drying, the plates were infested with L2 larvae (10 to 15 per well). The samples were assessed for mortality and growth inhibition in comparison to untreated samples 5 days after infestation.

[5] = test system: Myzus persicae; test: Myzus persicae (green peach aphid) leaf disc test; settings: foliar, 144 h, read-out: control (mortality)
Experimental: Myzus persicae (Green Peach Aphid):
Sunflower leaf discs were placed on agar in a 24-well microtiter plate and sprayed with test solutions at an application rate of 200 ppm. After drying, the leaf discs were infested with an aphid population of mixed ages. After an incubation period of 6 DAT, samples were checked for mortality.

[6] = test system: Tetranychus urticae; test: Tetranychus urticae (two-spotted spider mite) leaf disc test; settings: foliar, 192 h, read-out: control (mortality on mixed population, mobile stages)
Experimental: Tetranychus urticae (Two-Spotted Spider Mite):
Bean leaf discs on agar in 24-well microtiter plates were sprayed with aqueous test solutions prepared from 10′000 ppm DMSO stock solutions. After drying the leaf discs were infested with a mite population of mixed ages. The samples were assessed for mortality on mixed population (mobile stages) 8 days after infestation.

[7] = test system: Euschistus heros; test: Euschistus heros (neotropical brown stink bug) soybean leaf test; settings: 120 h, read-out: control (mortality and growth inhibition)
Experimental: Euschistus heros (Neotropical Brown Stink Bug):
Soybean leaves on agar in 24-well microtiter plates were sprayed with aqueous test solutions prepared from 10′000 ppm DMSO stock solutions. After drying the leaves were infested with N2 nymphs. The samples were assessed for mortality and growth inhibition in comparison to untreated samples 5 days after infestation.

[8] = application rate 200 ppm, sunflower leaf discs sprayed, mixed ages, 6 days after infestation
[9] = application rate 200 ppm, maize sprouts sprayed, L2 larvae, 4 days after infestation
[10] = application rate 200 ppm, artificial diet, L2 larvae, 5 days after infestation
[11] = application rate 200 ppm, sunflower leaf discs sprayed, mixed ages, 6 DAT
[12] = application rate 200 ppm, bean leaf discs sprayed, 8 days after infestation
[13] = application rate 200 ppm, soybean leaves sprayed, N2 nymphs, 5 days after infestation

CCN(C(=O)c1cc(-c2cnn(-c3c(C(F)(F)F)c(OS(=O)(=O)C(F)(C(F)(F)F)C(F)(F)F)nn3C)c2)ccc1Cl)C1CC1 [Compound 12, [5-[4-[4-chloro-3-[cyclopropyl(ethyl)carbamoyl]phenyl]pyrazol-1-yl]-1-methyl-4-(trifluoromethyl)pyrazol-3-yl] 1,1,1,2,3,3,3-heptafluoropropane-2-sulfonate]
≥ 80%: mortality at 200 ppm [1, 8] | percent control (mortality, anti-feedant effect or growth inhibition) at 200 ppm [2] | mortality at 200 ppm [3, 9] | mortality at 200 ppm [4, 10] | mortality at 200 ppm [5, 11] | mortality at 200 ppm [6, 12] | mortality at 200 ppm [7, 13]

C#CCN(C(=O)c1cc(-c2cnn(-c3c(C(F)(F)F)c(OS(=O)(=O)C(F)(C(F)(F)F)C(F)(F)F)nn3C)c2)ccc1Cl)C1(C#N)CC1 [Compound 50, [5-[4-[4-chloro-3-[(1-cyanocyclopropyl)-prop-2-ynyl-carbamoyl]phenyl]pyrazol-1-yl]-1-methyl-4-(trifluoromethyl)pyrazol-3-yl] 1,1,1,2,3,3,3-heptafluoropropane-2-sulfonate]
≥ 80%: mortality at 200 ppm [1, 8] | percent control (mortality, anti-feedant effect or growth inhibition) at 200 ppm [2] | mortality at 200 ppm [3, 9] | mortality at 200 ppm [4, 10] | mortality at 200 ppm [5, 11] | mortality at 200 ppm [6, 12] | mortality at 200 ppm [7, 13]

CC(C)C(=O)N(C(=O)c1cc(-c2cnn(-c3c(C(F)(F)F)c(OS(=O)(=O)C(F)(C(F)(F)F)C(F)(F)F)nn3C)c2)ccc1Cl)C1(C#N)CC1 [Compound 60, [5-[4-[4-chloro-3-[(1-cyanocyclopropyl)-(2-methylpropanoyl)carbamoyl]phenyl]pyrazol-1-yl]-1-methyl-4-(trifluoromethyl)pyrazol-3-yl] 1,1,1,2,3,3,3-heptafluoropropane-2-sulfonate]
≥ 80%: mortality at 200 ppm [1, 8] | percent control (mortality, anti-feedant effect or growth inhibition) at 200 ppm [2] | mortality at 200 ppm [3, 9] | mortality at 200 ppm [4, 10] | mortality at 200 ppm [5, 11] | mortality at 200 ppm [6, 12] | mortality at 200 ppm [7, 13]

COC(=O)N(C(=O)c1cc(-c2cnn(-c3c(C(F)(F)F)c(OS(=O)(=O)C(F)(C(F)(F)F)C(F)(F)F)nn3C)c2)ccc1Cl)C1(C#N)CC1 [Compound 52, [5-[4-[4-chloro-3-[(1-cyanocyclopropyl)-methoxycarbonyl-carbamoyl]phenyl]pyrazol-1-yl]-1-methyl-4-(trifluoromethyl)pyrazol-3-yl] 1,1,1,2,3,3,3-heptafluoropropane-2-sulfonate]
≥ 80%: mortality at 200 ppm [1] | percent control (mortality, anti-feedant effect or growth inhibition) at 200 ppm [2] | mortality at 200 ppm [3] | mortality at 200 ppm [4] | mortality at 200 ppm [5] | mortality at 200 ppm [6] | mortality at 200 ppm [7]

Cn1nc(OS(=O)(=O)C(F)(C(F)(F)F)C(F)(F)F)c(C(F)(F)F)c1-n1cc(-c2cnc(Cl)c(C(=O)NC3CC3)c2)cn1 [Compound 21, [5-[4-[6-chloro-5-(cyclopropylcarbamoyl)-3-pyridyl]pyrazol-1-yl]-1-methyl-4-(trifluoromethyl)pyrazol-3-yl] 1,1,1,2,3,3,3-heptafluoropropane-2-sulfonate]
≥ 80%: mortality at 200 ppm [1, 8] | percent control (mortality, anti-feedant effect or growth inhibition) at 200 ppm [2] | mortality at 200 ppm [3, 9] | mortality at 200 ppm [4, 10] | mortality at 200 ppm [5, 11] | mortality at 200 ppm [6, 12] | mortality at 200 ppm [7, 13]

Cn1nc(OS(=O)(=O)C(F)(C(F)(F)F)C(F)(F)F)c(C(F)(F)F)c1-n1cc(-c2ccc(Cl)c(C(=O)NC3(C#N)CC3)c2)cn1 [Compound 2, [5-[4-[4-chloro-3-[(1-cyanocyclopropyl)carbamoyl]phenyl]pyrazol-1-yl]-1-methyl-4-(trifluoromethyl)pyrazol-3-yl] 1,1,1,2,3,3,3-heptafluoropropane-2-sulfonate]
≥ 80%: mortality at 200 ppm [1, 8] | percent control (mortality, anti-feedant effect or growth inhibition) at 200 ppm [2] | mortality at 200 ppm [3, 9] | mortality at 200 ppm [4, 10] | mortality at 200 ppm [5, 11] | mortality at 200 ppm [6, 12] | mortality at 200 ppm [7, 13]

CCOC(=O)N(C(=O)c1cc(-c2cnn(-c3c(C(F)(F)F)c(OS(=O)(=O)C(F)(C(F)(F)F)C(F)(F)F)nn3C)c2)ccc1Cl)C1(C#N)CC1 [Compound 51, [5-[4-[4-chloro-3-[(1-cyanocyclopropyl)-ethoxycarbonyl-carbamoyl]phenyl]pyrazol-1-yl]-1-methyl-4-(trifluoromethyl)pyrazol-3-yl] 1,1,1,2,3,3,3-heptafluoropropane-2-sulfonate]
≥ 80%: mortality at 200 ppm [1] | percent control (mortality, anti-feedant effect or growth inhibition) at 200 ppm [2] | mortality at 200 ppm [3] | mortality at 200 ppm [4] | mortality at 200 ppm [5] | mortality at 200 ppm [6] | mortality at 200 ppm [7]

Cn1nc(OS(=O)(=O)C(F)(C(F)(F)F)C(F)(F)F)c(C(F)(F)F)c1-n1cc(-c2ccc(Cl)c(C(=O)N(C=O)C3(C#N)CC3)c2)cn1 [Compound 57, [5-[4-[4-chloro-3-[(1-cyanocyclopropyl)-formyl-carbamoyl]phenyl]pyrazol-1-yl]-1-methyl-4-(trifluoromethyl)pyrazol-3-yl] 1,1,1,2,3,3,3-heptafluoropropane-2-sulfonate]
≥ 80%: mortality at 200 ppm [1, 8] | percent control (mortality, anti-feedant effect or growth inhibition) at 200 ppm [2] | mortality at 200 ppm [3, 9] | mortality at 200 ppm [4, 10] | mortality at 200 ppm [5, 11] | mortality at 200 ppm [6, 12] | mortality at 200 ppm [7, 13]

COCC(=O)N(C(=O)c1cc(-c2cnn(-c3c(C(F)(F)F)c(OS(=O)(=O)C(F)(C(F)(F)F)C(F)(F)F)nn3C)c2)ccc1Cl)C1(C#N)CC1 [Compound 62, [5-[4-[4-chloro-3-[(1-cyanocyclopropyl)-(2-methoxyacetyl)carbamoyl]phenyl]pyrazol-1-yl]-1-methyl-4-(trifluoromethyl)pyrazol-3-yl] 1,1,1,2,3,3,3-heptafluoropropane-2-sulfonate]
≥ 80%: mortality at 200 ppm [1, 8] | percent control (mortality, anti-feedant effect or growth inhibition) at 200 ppm [2] | mortality at 200 ppm [3, 9] | mortality at 200 ppm [4, 10] | mortality at 200 ppm [5, 11] | mortality at 200 ppm [6, 12] | mortality at 200 ppm [7, 13]

COCN(C(=O)c1cc(-c2cnn(-c3c(C(F)(F)F)c(OS(=O)(=O)C(F)(C(F)(F)F)C(F)(F)F)nn3C)c2)ccc1Cl)C1(C#N)CC1 [Compound 48, [5-[4-[4-chloro-3-[(1-cyanocyclopropyl)-(methoxymethyl)carbamoyl]phenyl]pyrazol-1-yl]-1-methyl-4-(trifluoromethyl)pyrazol-3-yl] 1,1,1,2,3,3,3-heptafluoropropane-2-sulfonate]
≥ 80%: mortality at 200 ppm [1, 8] | percent control (mortality, anti-feedant effect or growth inhibition) at 200 ppm [2] | mortality at 200 ppm [3, 9] | mortality at 200 ppm [4, 10] | mortality at 200 ppm [5, 11] | mortality at 200 ppm [6, 12] | mortality at 200 ppm [7, 13]
